Test results reported in ChEMBL document CHEMBL4680285, “Aminothiazolones as potent, selective and cell active inhibitors of the PIM kinase family” (Bioorg Med Chem, 2020).

Assay: Half life in mouse liver microsomes
Type: ADME, Microsome
`CC(C)(CO)CNC1=NC(=O)/C(=C/c2csc(-c3ccc(OC(F)(F)F)cc3)n2)S1` showed a half-life of over 120 min.
With `CN1CCC(CNC2=NC(=O)/C(=C/c3csc(-c4ccc(C(F)(F)F)cc4)n3)S2)CC1` the half-life was over 120 min.
For `CN(C)S(=O)(=O)Nc1cccc(-c2nc(/C=C3\SC(NCC(C)(C)CO)=NC3=O)cs2)c1`, the half-life was 7.56 min.
In the case of `N=C1NC(=O)/C(=C/c2csc(-c3ccc(C(F)(F)F)cc3)n2)S1`, the half-life is reported as over 100 min.
Molecule `CN(c1cccc(-c2nc(/C=C3\SC(NCC(C)(C)CO)=NC3=O)cs2)c1)S(C)(=O)=O` has a half-life of 5.68 min.
With `O=C1N=C(NCC2(CO)CC2)S/C1=C\c1csc(-c2ccc(OC(F)(F)F)cc2)n1` the half-life was over 120 min.
In the case of `CN1CCC(CNC2=NC(=O)/C(=C/c3ccc(-c4cccc(Cl)c4)o3)S2)CC1`, the half-life is reported as over 120 min.
Molecule `CC(C)(CO)CNC1=NC(=O)/C(=C/c2csc(-c3cccc(OC(F)(F)F)c3)n2)S1` has a half-life of over 120 min.
`CN(C)CCNC1=NC(=O)/C(=C/c2csc(-c3ccc(OC(F)(F)F)cc3)n2)S1` showed a half-life of over 120 min.
With `O=C1N=C(N[C@H]2CC[C@H](O)CC2)S/C1=C\c1csc(-c2ccc(OC(F)(F)F)cc2)n1` the half-life was 781 min.
In the case of `CN1CCC(CNC2=NC(=O)/C(=C/c3csc(-c4cccc(N(C)S(C)(=O)=O)c4)n3)S2)CC1`, the half-life is reported as 27.5 min.
For `O=C1N=C(NCC2(CO)CCC2)S/C1=C\c1csc(-c2ccc(OC(F)(F)F)cc2)n1`, the half-life was over 120 min.
`O=C1NC(=S)S/C1=C\c1csc(-c2ccc(C(F)(F)F)cc2)n1` showed a half-life of 49 min.

Assay: Half life in mouse liver S9 fraction
Type: ADME, subcellular
In the case of `O=C1N=C(NCC2CCN(CCO)CC2)S/C1=C\c1csc(-c2ccccc2O)n1`, the half-life is reported as over 120 min.
Work on `CC(C)(CO)CNC1=NC(=O)/C(=C/c2csc(-c3cccc(OC(F)(F)F)c3O)n2)S1` yielded a half-life of 84.2 min.
`CC(C)(CO)CNC1=NC(=O)/C(=C/c2csc(-c3ccc(F)cc3O)n2)S1` showed a half-life of 45.6 min.
For `O=C1N=C(NCC2(CO)CC2)S/C1=C\c1csc(-c2ccccc2O)n1`, the half-life was 28.9 min.
`O=C1N=C(N[C@H]2CCC[C@@H]2CO)S/C1=C\c1csc(-c2cccc(F)c2O)n1` (stereo in doubt) showed a half-life of 22.1 min.
`CC(C)(CO)CNC1=NC(=O)/C(=C/c2csc(-c3cccc(F)c3O)n2)S1` gave a half-life of 44.4 min.
